Data: patent US20210267900A1, “PROCESSING METHOD FOR DRUG SUBSTANCE PARTICLES OF NON-UNIFORM PARTICLE SIZE” (NIPPON ZOKI PHARMACEUTICAL CO., LTD., priority 2018, published 2021)
Where “and” joins values, the source holds several entries; their conditions need not be identical. Equal values may be shown once.

Legend:
[1] = Particle size distribution by sieving method (ro-tap-type sieve shaker); assay type: physicochemical; settings: drug substance before processing, % by weight
From the text: (§1) In the present invention, the particle size distribution of each of the drug substance (A) and the powder (B) can be determined by a weight-based distribution evaluation by a sieving method (measurement device: a ro-tap-type sieve shaker or the like) and a volume-based distribution evaluation by a laser-diffraction method (also referred to as “a laser diffraction scattering method”) (measurement device: Mastersizer 2000 or Mastersizer 3000 [Malvern] or the like, dispersion compression air pressure: 2 to 4 bars).

[2] = Particle size distribution by laser-diffraction method (Mastersizer 2000); assay type: physicochemical; settings: drug substance before processing
From the text: as §1

| Structure (SMILES) | particles each having a particle size of 60 μm or less [1] [%] | particles each having a particle size of 500 μm or more [1] [%] | particles each having a particle size of 50 μm or less [2] | particles each having a particle size of 500 μm or more [2] |
| --- | --- | --- | --- | --- |
| CC(=O)Nc1ccc(O)cc1 [Acetaminophen, acetaminophen] | 32.9 | 14 | 25.11 % by volume and 21.08 % by volume | 3.57 % by volume and 5.82 % by volume |
| CC(C)Cc1ccc(C(C)C(=O)O)cc1 (stereo not shown) [Ibuprofen, ibuprofen] | 27.2 | 11 |  |  |
| CC(C)C[C@H](CN)CC(=O)O [Pregabalin, pregabalin] | 14.5 |  |  |  |
